# Assay results reported in US6492174B1, “Methods of initiating embryogenic cultures in plants” (Institute of Paper Science & Technology, priority 2000, dated 2002).
# Assays:
# Format in all cases: cell-based
# [1] = test system: Douglas fir stage 3-5 zygotic embryos attached to megagametophytes; test: Douglas fir initiation on solid media #121 with brassinolide, ABA, ABA pre-soak or elevated pressure
# Description: The explants used in this experiment were isolated from Douglas fir cones collected in mid-summer from four open-pollinated trees, representing a multiplicity of genotypes. Explants were stage 3-5 (early-midstage) zygotic embryos attached to megagametophytes, prepared as described in Example 2. The embryo and attached megagametophyte were then placed next to each other on the treatment media. As in Example 2, each replication consisted of ten explants in a single petri dish. Each treatment contained four replications per treatment, per genotype.
# The treatment media were based on solid media #121, the composition of which is described in Table 5. Media #121 contains no ABA or brassinolide. Treatment #1, the control, consisted of explants cultured on media #121 alone. In Treatment #2, explants were cultured on media #121 containing 0.1 μM brassinolide. In Treatment #3, explants were cultured on media #121 containing 1 ppm ABA. In treatment #4, explants were soaked in liquid media containing 5 ppm ABA for 30 minutes prior to being placed on #121 media. In Treatment #5, explants were cultured on media #121 under 1.5 atmospheres of pressure. The petri dishes were wrapped in PARAFILM and incubated at 23-24° C. in the dark.
# [2] = test system: Norway spruce zygotic embryos; test: Norway spruce initiation on solid media #56 with ABA, brassinolide or elevated pressure, ten weeks
# Method: Explants were zygotic embryos flipped out of the megagametophyte, prepared as in Example 1. The experiment consisted of five replications, with a replication consisting of ten explants in a single petri dish. Explants were cultured on solid media #56 (Table 3). Treatment #1 consisted of explants on media #56. In Treatment #2, the medium additionally contained 1 ppm ABA. In Treatment #3, the media contained […] brassinolide. In Treatment #4, the explants were cultured under 1.5 atmospheres of pressure. After ten weeks, the explants were examined and the frequency of embryogenic culture initiation was scored (Table 43).
# [3] = test system: Loblolly pine megagametophytes; test: Elevated pressure in combination with brassinolide, ABA pre-soak or liquid media #1038, 8 weeks; conditions: for % Megagametophytes Extruding / % Megagametophytes Initiating: Br 0.1 μM in media #1042, ABA soak 5 ppm 30 minute
# Method: The previous examples indicate that elevated pressure can enhance extrusion and initiation. This experiment was designed to test the effect of elevated pressure in combination with other treatments to determine the optimal conditions for promoting extrusion and initiation.
# Megagametophytes in some treatments received a 30 minute pre-culturing soak in liquid media (#1042 minus the gelling agent) containing 5 ppm ABA. Megagametophytes in Treatments 9 and 10 were fully immersed in liquid media #1038. The experiment consisted of three replications per treatment, per genotype.
# Five different treatments were used, each cultured under 1.0 or 1.5 atmospheres for a total of ten treatments (See Table 33).
# After 8 weeks culturing, the treatments were scored. Extrusion and initiation were increased by elevated pressure in all treatments.
# [4] = test system: Loblolly pine megagametophytes; test: 30 minute abscisic acid soaking pre-treatment, culture on solid media #1042 with or without 0.1 μM brassinolide, eight weeks
# Method: In this experiment, the effects of ovule pre-treatment by soaking with abscisic acid solutions of varying concentration was investigated. The abscisic acid treatment was tested on two media, one containing brassinolide and one lacking in brassinolide. The explants were megagametophytes from open pollinated summer cones of four individual trees, representing a multiplicity of genotypes. The seeds contained Stage 2-4 zygotic embryos. Megagametophytes were excised from sterilized seeds, as described in Example 4.
# Prior to culturing, the megagametophytes were soaked for 30 minutes in liquid growth media (media #1042, Table 47, minus the gelling agent) containing 0, 5, 10 and 20 ppm abscisic acid. After soaking, the megagametophytes were placed on either one of two solid growth media. While still liquid, 2 ml media was poured into wells on a culture well plate and allowed to solidify. Half the soaked megagametophytes were placed on solid media #1042 (Table 47) and half were placed on solid media #1042 with 0.1 μM brassinolide added.
# On solid media where brassinolide was present, there was a dramatic difference in extrusion and initiation between megagametophytes soaked in zero and 5 ppm ABA solutions (Treatments #5 and #6) compared to those soaked in 10 and 20 ppm ABA solutions (Treatments #7 and #8). […] In contrast, megagametophytes treated with higher amounts of ABA in Treatments 7 and 8 had the highest initiation frequencies of any treatment. […] Alternatively, there may have been an interaction between brassinolide and ABA such that low ABA plus brassinolide inhibits extrusion, with this inhibition overcome when ABA concentration is higher.
# [5] = genotype 7-100, + Pressure 1.5 atm
# [6] = genotype 11-1095, + Pressure 1.5 atm
# [7] = genotype 21-6, + Pressure 1.5 atm
# [8] = genotype 7-1051, 5 ppm ABA/No Br
# [9] = genotype 7-1051, 10 ppm ABA/No Br
# [10] = genotype 7-1051, 20 ppm ABA/No Br
# [11] = genotype M7-56, 5 ppm ABA/No Br
# [12] = genotype M7-56, 10 ppm ABA/No Br
# [13] = genotype M7-56, 20 ppm ABA/No Br
# [14] = genotype TC5-1501, 5 ppm ABA/No Br
# [15] = genotype TC5-1501, 10 ppm ABA/No Br
# [16] = genotype TC5-1501, 20 ppm ABA/No Br
# [17] = genotype TC11-109, 5 ppm ABA/No Br
# [18] = genotype TC11-109, 10 ppm ABA/No Br
# [19] = genotype TC11-109, 20 ppm ABA/No Br
# [20] = genotype 7-1051, 0 ppm ABA/ +Br (0.10 μM)
# [21] = genotype M7-56, 0 ppm ABA/ +Br (0.10 μM)
# [22] = genotype TC5-1501, 0 ppm ABA/ +Br (0.10 μM)
# [23] = genotype TC11-109, 0 ppm ABA/ +Br (0.10 μM)
# [24] = total, 0 ppm ABA/ +Br (0.10 μM)
smiles,measurement,setting,value
"CC1=CC(=O)CC(C)(C)C1(O)/C=C/C(C)=C\C(=O)O (stereo not shown) [ABA, 5-(1-hydroxy-2,6,6,-trimethyl-4-oxo-2-cyclohexen-1-yl)-3-methyl-2,4-penta dienoic acid]",% of Megagametophytes Initiating - Mean,"[1]; genotype T0232l, +1 ppm ABA in media #121",21.1%
same,% of Megagametophytes Initiating - Mean,"[1]; genotype T0232l, ABA pre-soak (5 ppm, 30 minutes)",27.6%
same,% of Megagametophytes Initiating - Mean,"[1]; genotype T0235l, +1 ppm ABA in media #121",10.5%
same,% of Megagametophytes Initiating - Mean,"[1]; genotype T0235l, ABA pre-soak (5 ppm, 30 minutes)",25.0%
same,% of Megagametophytes Initiating - Mean,"[1]; genotype T0293l, +1 ppm ABA in media #121",34.6%
same,% of Megagametophytes Initiating - Mean,"[1]; genotype T0293l, ABA pre-soak (5 ppm, 30 minutes)",26.9%
same,% of Megagametophytes Initiating - Mean,"[1]; genotype T0525l, +1 ppm ABA in media #121",10.0%
same,% of Megagametophytes Initiating - Mean,"[1]; genotype T0525l, ABA pre-soak (5 ppm, 30 minutes)",20.0%
same,% of Megagametophytes Initiating - Mean,"[1]; total, +1 ppm ABA in media #121",19.1%
same,% of Megagametophytes Initiating - Mean,"[1]; total, ABA pre-soak (5 ppm, 30 minutes)",24.6%
same,% Initiating (std. error),[2]; 1 ppm ABA added to medium #56,47.4 (5.5) %
same,% Megagametophytes Extruding,"[3]; Total, 1.0 atm",38.4%
same,% Megagametophytes Initiating,"[3]; Total, 1.0 atm",21.5%
same,% Megagametophytes Extruding,"[3]; Total, + Pressure 1.5 atm",46.7%
same,% Megagametophytes Initiating,"[3]; Total, + Pressure 1.5 atm",24.4%
same,% Megagametophytes Extruding,"[3]; genotype 7-100, 1.0 atm",10.0 (5.8) %
same,% Megagametophytes Initiating,"[3]; genotype 7-100, 1.0 atm",3.3 (3.3) %
same,% Megagametophytes Extruding,[3]; [5],23.3 (13.3) %
same,% Megagametophytes Initiating,[3]; [5],3.3 (3.3) %
same,% Megagametophytes Extruding,"[3]; genotype 11-1095, 1.0 atm",50.0 (0.0) %
same,% Megagametophytes Initiating,"[3]; genotype 11-1095, 1.0 atm",23.3 (6.7) %
same,% Megagametophytes Extruding,[3]; [6],50.0 (5.8) %
same,% Megagametophytes Initiating,[3]; [6],20.0 (5.8) %
same,% Megagametophytes Extruding,"[3]; genotype 21-6, 1.0 atm",55.2 (8.7) %
same,% Megagametophytes Initiating,"[3]; genotype 21-6, 1.0 atm",37.8 (11.8) %
same,% Megagametophytes Extruding,[3]; [7],66.7 (8.8) %
same,% Megagametophytes Initiating,[3]; [7],50.0 (11.5) %
same,% Megagametophytes Extruding,[4]; [8],53.3 (8.8) %
same,Embryogenic Culture Initiation - % Megagametophytes Extruding,[4]; [8],20.0 (10.0) %
same,% Megagametophytes Extruding,[4]; [9],30.0 (5.8) %
same,Embryogenic Culture Initiation - % Megagametophytes Extruding,[4]; [9],6.7 (3.3) %
same,% Megagametophytes Extruding,[4]; [10],40.0 (5.8) %
same,Embryogenic Culture Initiation - % Megagametophytes Extruding,[4]; [10],13.3 (3.3) %
same,% Megagametophytes Extruding,[4]; [11],20.0 (5.8) %
same,Embryogenic Culture Initiation - % Megagametophytes Extruding,[4]; [11],13.3 (3.3) %
same,% Megagametophytes Extruding,[4]; [12],26.7 (6.7) %
same,Embryogenic Culture Initiation - % Megagametophytes Extruding,[4]; [12],13.3 (3.3) %
same,% Megagametophytes Extruding,[4]; [13],36.7 (8.8) %
same,Embryogenic Culture Initiation - % Megagametophytes Extruding,[4]; [13],6.7 (6.7) %
same,% Megagametophytes Extruding,[4]; [14],33.3 (6.7) %
same,Embryogenic Culture Initiation - % Megagametophytes Extruding,[4]; [14],10.0 (0.0) %
same,% Megagametophytes Extruding,[4]; [15],16.7 (8.8) %
same,Embryogenic Culture Initiation - % Megagametophytes Extruding,[4]; [15],3.3 (3.3) %
same,% Megagametophytes Extruding,[4]; [16],40.0 (11.5) %
same,Embryogenic Culture Initiation - % Megagametophytes Extruding,[4]; [16],6.7 (3.3) %
same,% Megagametophytes Extruding,[4]; [17],33.3 (3.3) %
same,Embryogenic Culture Initiation - % Megagametophytes Extruding,[4]; [17],10.0 (5.8) %
same,% Megagametophytes Extruding,[4]; [18],46.7 (13.3) %
same,Embryogenic Culture Initiation - % Megagametophytes Extruding,[4]; [18],13.3 (3.3) %
same,% Megagametophytes Extruding,[4]; [19],46.7 (12.0) %
same,Embryogenic Culture Initiation - % Megagametophytes Extruding,[4]; [19],13.3 (3.3) %
same,promotion of extrusion or initiation,"[4]; soaking pretreatment, media where no brassinolide was present (Treatments #1-4)",did not promote extrusion or initiation
same,% Megagametophytes Extruding,"[4]; total, 5 ppm ABA/No Br",35.0%
same,Embryogenic Culture Initiation - % Megagametophytes Extruding,"[4]; total, 5 ppm ABA/No Br",13.3%
same,% Megagametophytes Extruding,"[4]; total, 10 ppm ABA/No Br",30.0%
same,Embryogenic Culture Initiation - % Megagametophytes Extruding,"[4]; total, 10 ppm ABA/No Br",9.2%
same,% Megagametophytes Extruding,"[4]; total, 20 ppm ABA/No Br",40.9%
same,Embryogenic Culture Initiation - % Megagametophytes Extruding,"[4]; total, 20 ppm ABA/No Br",10.0%
CC(C)[C@H](C)[C@@H](O)[C@H](O)[C@@H](C)[C@H]1CC[C@H]2[C@@H]3COC(=O)[C@H]4C[C@H](O)[C@H](O)C[C@]4(C)[C@H]3CC[C@]12C [brassinolide],% of Megagametophytes Initiating - Mean,"[1]; genotype T0232l, +0.1 μM Br in media #121",27.8%
same,% of Megagametophytes Initiating - Mean,"[1]; genotype T0235l, +0.1 μM Br in media #121",21.8%
same,% of Megagametophytes Initiating - Mean,"[1]; genotype T0293l, +0.1 μM Br in media #121",34.6%
same,% of Megagametophytes Initiating - Mean,"[1]; genotype T0525l, +0.1 μM Br in media #121",30.0%
same,% of Megagametophytes Initiating - Mean,"[1]; total, +0.1 μM Br in media #121",31.1%
same,% Initiating (std. error),[2]; 0.1 pM brassinolide added to medium #56,46.2 (6.1) %
same,% Megagametophytes Extruding,"[3]; Total, 1.0 atm",32.2%
same,% Megagametophytes Initiating,"[3]; Total, 1.0 atm",24.2%
same,% Megagametophytes Extruding,"[3]; Total, + Pressure 1.5 atm",55.9%
same,% Megagametophytes Initiating,"[3]; Total, + Pressure 1.5 atm",38.7%
same,increase of initiation frequency by pressure,[3]; Treatment #4 vs. #3,over 60%
same,% Megagametophytes Extruding,"[3]; genotype 7-100, 1.0 atm",3.3 (3.3) %
same,% Megagametophytes Initiating,"[3]; genotype 7-100, 1.0 atm",0.0 (0.0) %
same,% Megagametophytes Extruding,[3]; [5],43.3 (8.8) %
same,% Megagametophytes Initiating,[3]; [5],20.0 (5.8) %
same,% Megagametophytes Extruding,"[3]; genotype 11-1095, 1.0 atm",56.7 (6.7) %
same,% Megagametophytes Initiating,"[3]; genotype 11-1095, 1.0 atm",39.2 (11.6) %
same,% Megagametophytes Extruding,[3]; [6],50.0 (21.7) %
same,% Megagametophytes Initiating,[3]; [6],39.2 (18.6) %
same,% Megagametophytes Extruding,"[3]; genotype 21-6, 1.0 atm",36.7 (6.7) %
same,% Megagametophytes Initiating,"[3]; genotype 21-6, 1.0 atm",33.3 (8.8) %
same,% Megagametophytes Extruding,[3]; [7],74.4 (12.4) %
same,% Megagametophytes Initiating,[3]; [7],56.9 (13.7) %
same,% Megagametophytes Extruding,[4]; [20],13.3 (6.7) %
same,Embryogenic Culture Initiation - % Megagametophytes Extruding,[4]; [20],0.0 (0.0) %
same,% Megagametophytes Extruding,[4]; [21],3.3 (3.3) %
same,Embryogenic Culture Initiation - % Megagametophytes Extruding,[4]; [21],0.0 (0.0) %
same,% Megagametophytes Extruding,[4]; [22],0.0 (0.0) %
same,Embryogenic Culture Initiation - % Megagametophytes Extruding,[4]; [22],0.0 (0.0) %
same,% Megagametophytes Extruding,[4]; [23],0.0 (0.0) %
same,Embryogenic Culture Initiation - % Megagametophytes Extruding,[4]; [23],0.0 (0.0) %
same,% Megagametophytes Extruding,[4]; [24],4.2%
same,Embryogenic Culture Initiation - % Megagametophytes Extruding,[4]; [24],0%
